From PubChem BioAssay (NCI)
Where “and” joins values, the source holds several entries; their conditions need not be identical. Identical values can stand only once.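 Dose response: 5 concentrations. Exposure: 48 h. Format: 96-well plates. Endpoint: linear interpolation; highest concentration if not reached. The concentration for 50% growth inhibition is given as GI50. At the TGI there is no net growth.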

What was measured:
Experiment in all cases: inhibition of tumour cell growth, NCI panel, 48 h
CAKI-1 renal = tested on: CAKI-1 renal
EKVX NSCLC = tested on: EKVX NSCLC
HOP-62 NSCLC = tested on: HOP-62 NSCLC
HOP-92 NSCLC = tested on: HOP-92 NSCLC
KM12 colon = tested on: KM12 colon
NCI-H226 lung = tested on: NCI-H226 lung
SN12C renal = tested on: SN12C renal
T-47D breast = tested on: T-47D breast
UO-31 renal = tested on: UO-31 renal
DMS 114 small cell lung = tested on: DMS 114 small cell lung
KM20L2 colon = tested on: KM20L2 colon

## O=C(O)/C(Cc1ccc([N+](=O)[O-])cc1)=N\O
CAKI-1 renal
  TGI: > 100 µM
EKVX NSCLC
  TGI: > 100 µM
HOP-62 NSCLC
  TGI: > 100 µM
HOP-92 NSCLC
  TGI: > 100 µM
KM12 colon
  TGI: > 100 µM
NCI-H226 lung
  TGI: > 100 µM
SN12C renal
  TGI: > 100 µM
T-47D breast
  TGI: > 100 µM
UO-31 renal
  TGI: > 100 µM

## Clc1ccc(C(SCc2ccccc2)SCc2ccccc2)cc1
CAKI-1 renal
  TGI: > 10 µM
EKVX NSCLC
  TGI: > 10 µM
HOP-62 NSCLC
  TGI: > 10 µM
HOP-92 NSCLC
  TGI: > 10 µM
KM12 colon
  TGI: > 10 µM
NCI-H226 lung
  TGI: > 10 µM
SN12C renal
  TGI: > 10 µM
T-47D breast
  TGI: > 10 µM
UO-31 renal
  TGI: > 10 µM

## Cc1noc(NC2=CC(=O)C(=O)c3ccccc32)c1C
CAKI-1 renal
  TGI: > 100 µM
EKVX NSCLC
  TGI: > 100 µM
HOP-62 NSCLC
  TGI: > 100 µM
HOP-92 NSCLC
  TGI: 78.1 µM
KM12 colon
  TGI: 32.7 µM
NCI-H226 lung
  TGI: > 100 µM
SN12C renal
  TGI: 3.7 µM
T-47D breast
  TGI: > 100 µM
UO-31 renal
  TGI: > 100 µM

## COc1ccc(N2C(=O)C3c4[nH]c5ccc(F)cc5c4C4CCC(c5ccccc5)CC4C3C2=O)cc1 (stereo unspecified)
CAKI-1 renal
  TGI: 48.1 µM
EKVX NSCLC
  TGI: 63 µM
HOP-62 NSCLC
  TGI: 28.1 µM
HOP-92 NSCLC
  TGI: 36.8 µM
KM12 colon
  TGI: > 100 µM
NCI-H226 lung
  TGI: > 100 µM
SN12C renal
  TGI: > 100 µM
T-47D breast
  TGI: > 100 µM
UO-31 renal
  TGI: 55.5 µM

## O=[N+]([O-])c1cc2c(cc1/C=N/n1c(CO)nc3ccccc31)OCO2
CAKI-1 renal
  TGI: > 100 µM
EKVX NSCLC
  TGI: > 100 µM
HOP-62 NSCLC
  TGI: > 100 µM
HOP-92 NSCLC
  TGI: > 100 µM
KM12 colon
  TGI: > 100 µM
NCI-H226 lung
  TGI: > 100 µM
SN12C renal
  TGI: > 100 µM
T-47D breast
  TGI: > 100 µM
UO-31 renal
  TGI: > 100 µM

## CCCCCCCCCCCCCCCC(=O)N(CCCCCCCCCCC(=O)O)CC(O)C(O)C(OC1OC(CO)C(O)C(O)C1O)C(O)CO (stereo unspecified)
CAKI-1 renal
  TGI: > 100 µM
EKVX NSCLC
  TGI: > 100 µM
HOP-62 NSCLC
  TGI: 75.8 µM
HOP-92 NSCLC
  TGI: > 100 µM
KM12 colon
  TGI: 34 µM
NCI-H226 lung
  TGI: > 100 µM
SN12C renal
  TGI: 40.1 µM
T-47D breast
  TGI: > 100 µM
UO-31 renal
  TGI: > 100 µM

## CC1OC(OC2C(OC(=O)[C@]34CCC(C)(C)C[C@H]3C3=CC[C@@H]5[C@@]6(C)CC[C@H](OC7OC(C(=O)O)C(O)C(OC8OCC(O)C(O)C8O)C7O)C(C)(C)[C@@H]6CC[C@@]5(C)[C@]3(C)CC4)OCC(O)C2O)C(O)C(OC2OCC(O)C(O)C2O)C1OC1OCC(O)C(OC2OCC(O)C(O)C2O)C1O (stereo partly specified)
CAKI-1 renal
  TGI: 18.8 µM and 23.1 µM
EKVX NSCLC
  TGI: 22.6 µM and 35.7 µM
HOP-62 NSCLC
  TGI: 30.7 µM and 32.6 µM
HOP-92 NSCLC
  GI50: 6.12 µM and 13 µM
  TGI: 17.4 µM and 26.6 µM
KM12 colon
  GI50: 4.39 µM and 11.3 µM
  TGI: 15.8 µM and 23.7 µM
NCI-H226 lung
  GI50: 9.29 µM and 19.1 µM
  TGI: 24.6 µM and 39.7 µM
SN12C renal
  GI50: 2.85 µM and 8.35 µM
  TGI: 7.2 µM and 21.6 µM
T-47D breast
  GI50: 9.59 µM and 38.3 µM
  TGI: 51.8 µM and > 100 µM
UO-31 renal
  GI50: 2.12 µM and 9 µM
  TGI: 4.99 µM and 21.1 µM

## C=CCO[C@]1(CC=C)C(=O)C(=O)OC1C1COC(C)(C)O1 (stereo partly specified)
CAKI-1 renal
  TGI: 41.9 µM
EKVX NSCLC
  TGI: > 100 µM
HOP-62 NSCLC
  TGI: > 100 µM
HOP-92 NSCLC
  TGI: 41.3 µM
KM12 colon
  TGI: 39.3 µM
NCI-H226 lung
  TGI: > 100 µM
SN12C renal
  TGI: > 100 µM
T-47D breast
  TGI: > 100 µM
UO-31 renal
  TGI: > 100 µM

## CCOC(=O)C(Cc1cccn1C(=O)OC(C)(C)C)[N+](=O)[O-] (stereo unspecified)
CAKI-1 renal
  TGI: 64.5 µM
EKVX NSCLC
  TGI: > 100 µM
HOP-62 NSCLC
  TGI: 56.7 µM
HOP-92 NSCLC
  TGI: 74.2 µM
KM12 colon
  TGI: 55.5 µM
NCI-H226 lung
  TGI: 67.3 µM
SN12C renal
  TGI: 62.9 µM
T-47D breast
  TGI: > 100 µM
UO-31 renal
  TGI: 39.3 µM

## CC(C)C1=CC23CCC4C(C)(C(=O)O)CCCC4(C)C2CC1C1C(=O)N(c2ccccc2)C(=O)C13 (stereo unspecified)
CAKI-1 renal
  TGI: > 100 µM
DMS 114 small cell lung
  TGI: > 100 µM
HOP-62 NSCLC
  TGI: > 100 µM
HOP-92 NSCLC
  TGI: 97.4 µM
KM12 colon
  TGI: > 100 µM
KM20L2 colon
  TGI: > 100 µM
NCI-H226 lung
  TGI: 60.3 µM
SN12C renal
  TGI: > 100 µM
UO-31 renal
  TGI: > 100 µM

## CC1=C(C(=O)c2ccccc2)C23C(=O)N(c4ccccc4)C(=O)C2=C(O)C=CC3(O)N1 (stereo unspecified)
CAKI-1 renal
  TGI: > 100 µM
EKVX NSCLC
  TGI: > 100 µM
HOP-62 NSCLC
  TGI: > 100 µM
HOP-92 NSCLC
  TGI: 60 µM
KM12 colon
  TGI: 53.5 µM
NCI-H226 lung
  TGI: > 100 µM
SN12C renal
  TGI: > 100 µM
T-47D breast
  TGI: > 100 µM
UO-31 renal
  TGI: 37.8 µM

## CCCCCCCCCCC1OC([C@@H](O)CC[C@H](O)C2CC[C@@H](CCCCCCCC(O)CC3=CC(C)OC3=O)O2)CCC1O (stereo partly specified)
CAKI-1 renal
  TGI: > 25 µM
EKVX NSCLC
  GI50: 9.5 µM
  TGI: > 25 µM
HOP-62 NSCLC
  GI50: 6.29 µM
  TGI: > 25 µM
HOP-92 NSCLC
  GI50: 3.03 µM
  TGI: > 25 µM
KM12 colon
  GI50: 10.3 µM
  TGI: > 25 µM
NCI-H226 lung
  TGI: > 25 µM
SN12C renal
  TGI: > 25 µM
T-47D breast
  TGI: > 25 µM
UO-31 renal
  GI50: 2.66 µM
  TGI: 10.4 µM

## O=C(NCc1cccc2ccccc12)N/N=C\c1ccc(Cl)cc1
CAKI-1 renal
  TGI: > 100 µM
EKVX NSCLC
  TGI: > 100 µM
HOP-62 NSCLC
  TGI: > 100 µM
HOP-92 NSCLC
  TGI: > 100 µM
KM12 colon
  TGI: > 100 µM
NCI-H226 lung
  TGI: > 100 µM
SN12C renal
  TGI: > 100 µM
T-47D breast
  TGI: > 100 µM
UO-31 renal
  TGI: > 100 µM

## O=C(O)CC1NCc2cc3ccccc3nc21 (stereo unspecified)
CAKI-1 renal
  TGI: > 100 µM
EKVX NSCLC
  TGI: > 100 µM
HOP-62 NSCLC
  TGI: > 100 µM
HOP-92 NSCLC
  TGI: > 100 µM
KM12 colon
  TGI: > 100 µM
NCI-H226 lung
  TGI: > 100 µM
SN12C renal
  TGI: > 100 µM
T-47D breast
  TGI: > 100 µM
UO-31 renal
  TGI: > 100 µM

## Cc1cn([C@@H]2O[C@H](CO[Si](C)(C)C(C)(C)C)[C@]3(O[C@H]3C(=O)NN)[C@H]2O[Si](C)(C)C(C)(C)C)c(=O)[nH]c1=O
CAKI-1 renal
  TGI: 28.2 µM
EKVX NSCLC
  TGI: 22.4 µM
HOP-62 NSCLC
  TGI: 33.3 µM
HOP-92 NSCLC
  TGI: 19.7 µM
KM12 colon
  TGI: 32.6 µM
NCI-H226 lung
  TGI: 27.6 µM
SN12C renal
  TGI: 13.9 µM
T-47D breast
  TGI: 6.32 µM
UO-31 renal
  TGI: 27.7 µM
